Experimental data as given in patent US20230002359A1, “PESTICIDALLY ACTIVE FUSED BICYCLIC HETEROAROMATIC COMPOUNDS” (priority 2019, published 2023).

Experiments:
Format in all cases: in vivo
[1] = test system: Diabrotica Balteata (Corn Root Worm); test: Example B1: Diabrotica balteata (corn root worm), maize sprouts sprayed, L2 larvae; conditions: 96 h, application rate of 200 ppm, 4 days after infestation, L2 larvae, read-out: control in at least one of the two categories (mortality or growth inhibition)
In short: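 Read-out is mortality plus growth inhibition relative to untreated controls, assessed 4 days after infestation. Sprouts resting on agar are sprayed with aqueous solutions derived from 10′000 ppm DMSO stocks and left to dry before L2 larvae (6 to 10 per well) are added.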

[2] = test system: Chilo suppressalis (Striped Rice Stemborer); test: Example B3: Chilo suppressalis (striped rice stemborer), artificial diet, L2 larvae; conditions: 144 h, application rate of 200 ppm, 6 days after infestation, L2 larvae, read-out: control in at least one of the three categories (mortality, anti-feedant effect, or growth inhibition)
In short: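 Diet-incorporation surface assay: aqueous dilutions of 10'000 ppm DMSO stock applied to artificial diet, dried; 6-8 L2 larvae/well; read day 6 post-infestation for mortality, antifeedant effect, growth inhibition vs untreated. Active if any category above untreated.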

[3] = test system: Plutella xylostella (Diamond Back Moth); test: Example B4: Plutella xylostella (diamond back moth), artificial diet, eggs, 24-well; conditions: 192 h, application rate of 200 ppm, 8 days after infestation, eggs, read-out: control in at least one of the two categories (mortality or growth inhibition)
Experimental: 24-well microtiter plates with artificial diet were treated with aqueous test solutions prepared from 10′000 ppm DMSO stock solutions by pipetting. After drying, Plutella eggs were pipetted through a plastic stencil onto a gel blotting paper and the plate was closed with it. The samples were assessed for mortality and growth inhibition in comparison to untreated samples 8 days after infestation.

[4] = test system: Spodoptera littoralis (Egyptian Cotton Leaf Worm); test: Example B7: Spodoptera littoralis (Egyptian cotton leaf worm), cotton leaf discs sprayed, L1 larvae; conditions: foliar, 72 h, application rate of 200 ppm, 3 days after infestation, L1 larvae, read-out: control in at least one of the three categories (mortality, anti-feedant effect, or growth inhibition)
Experimental: Cotton leaf discs were placed onto agar in 24-well microtiter plates and sprayed with aqueous test solutions prepared from 10′000 ppm DMSO stock solutions. After drying the leaf discs were infested with five L1 larvae. The samples were assessed for mortality, anti-feeding effect, and growth inhibition in comparison to untreated samples 3 days after infestation. Control of Spodoptera littoralis by a test sample is given when at least one of the categories mortality, anti-feedant effect, and growth inhibition is higher than the untreated sample.

CC(c1nc(Br)nn1-c1ncccn1)N(C)c1ncnc2c(C(F)(F)F)cc(C(F)(F)F)cc12 (stereo not drawn) [P.4, N-[1-(5-bromo-2-pyrimidin-2-yl-1,2,4-triazol-3-yl)ethyl]-N-methyl-6,8-bis(trifluoromethyl)quina-zolin-4-amine]
≥ 80%: percent control (mortality or growth inhibition) at 200 ppm [1] | percent control (mortality, anti-feedant effect or growth inhibition) at 200 ppm [2] | percent control (mortality or growth inhibition) at 200 ppm [3] | percent control (mortality, anti-feedant effect or growth inhibition) at 200 ppm [4]

C[C@H](Nc1ccnc2c(C(F)(F)F)cc(C(F)(F)F)cc12)c1ncnn1-c1ncccn1 [P.5, N-[(1S)-1-(2-pyrimidin-2-yl-1,2,4-triazol-3-yl)ethyl]-6,8-bis(trifluoromethyl)quinolin-4-amine]
≥ 80%: percent control (mortality or growth inhibition) at 200 ppm [1] | percent control (mortality, anti-feedant effect or growth inhibition) at 200 ppm [2] | percent control (mortality or growth inhibition) at 200 ppm [3] | percent control (mortality, anti-feedant effect or growth inhibition) at 200 ppm [4]

CC(c1ncnn1-c1ccc(C#N)cn1)N(C#N)c1ncnc2c(C(F)(F)F)cc(C(F)(F)F)cc12 (stereo not drawn) [P.9, [6,8-bis(trifluoromethyl)quina-zolin-4-yl]-[1-[2-(5-cyano-2-pyridyl)-1,2,4-triazol-3-yl]ethyl]cyanamide]
≥ 80%: percent control (mortality or growth inhibition) at 200 ppm [1] | percent control (mortality, anti-feedant effect or growth inhibition) at 200 ppm [2] | percent control (mortality or growth inhibition) at 200 ppm [3] | percent control (mortality, anti-feedant effect or growth inhibition) at 200 ppm [4]

CC(Nc1ncnc2c(Br)cc(OC(F)(F)F)cc12)c1nccnc1-n1nccn1 (stereo not drawn) [P.13, 8-bromo-N-[1-[3-(triazol-2-yl)pyrazin-2-yl]ethyl]-6-(trifluoromethoxy)quina-zolin-4-amine]
≥ 80%: percent control (mortality or growth inhibition) at 200 ppm [1] | percent control (mortality, anti-feedant effect or growth inhibition) at 200 ppm [2] | percent control (mortality or growth inhibition) at 200 ppm [3] | percent control (mortality, anti-feedant effect or growth inhibition) at 200 ppm [4]

CC(Nc1ncnc2c(OC(F)(F)F)cc(Br)cc12)c1nccnc1-n1nccn1 (stereo not drawn) [P.14, 6-bromo-N-[1-[3-(triazol-2-yl)pyrazin-2-yl]ethyl]-8-(trifluoromethoxy)quina-zolin-4-amine]
≥ 80%: percent control (mortality or growth inhibition) at 200 ppm [1] | percent control (mortality, anti-feedant effect or growth inhibition) at 200 ppm [2] | percent control (mortality or growth inhibition) at 200 ppm [3] | percent control (mortality, anti-feedant effect or growth inhibition) at 200 ppm [4]

C[C@H](Nc1ncnc2c(Cl)cc(C(F)(F)F)cc12)c1ncnn1-c1ccc(C#N)cn1 [P.17, 6-[5-[(1S)-1-[[8-chloro-6-(trifluoromethyl)quinazolin-4-yl]amino]ethyl]-1,2,4-triazol-1-yl]pyridine-3-carbonitrile]
≥ 80%: percent control (mortality or growth inhibition) at 200 ppm [1] | percent control (mortality, anti-feedant effect or growth inhibition) at 200 ppm [2] | percent control (mortality or growth inhibition) at 200 ppm [3] | percent control (mortality, anti-feedant effect or growth inhibition) at 200 ppm [4]

C[C@@H](c1ncnn1-c1ccc(C#N)cn1)N(C)c1ncnc2c(Cl)cc(C(F)(F)F)cc12 [P.19, 6-[5-[(1S)-1-[[8-chloro-6-(trifluoromethyl)quinazolin-4-yl]-methyl-amino]ethyl]-1,2,4-triazol-1-yl]pyridine-3-carbonitrile]
≥ 80%: percent control (mortality or growth inhibition) at 200 ppm [1] | percent control (mortality, anti-feedant effect or growth inhibition) at 200 ppm [2] | percent control (mortality or growth inhibition) at 200 ppm [3] | percent control (mortality, anti-feedant effect or growth inhibition) at 200 ppm [4]

CC(Nc1ncnc2c(Br)cc(Br)cc12)c1ncnn1-c1ccc(C#N)cn1 (stereo not drawn) [P.30, 6-[5-[1-[(6,8-dibromoquinazolin-4-yl)amino]ethyl]-1,2,4-triazol-1-yl]pyridine-3-carbonitrile]
≥ 80%: percent control (mortality or growth inhibition) at 200 ppm [1] | percent control (mortality, anti-feedant effect or growth inhibition) at 200 ppm [2] | percent control (mortality or growth inhibition) at 200 ppm [3] | percent control (mortality, anti-feedant effect or growth inhibition) at 200 ppm [4]

CC(Nc1ncnc2c(OC(F)F)cc(Br)cc12)c1nccnc1-n1nccn1 (stereo not drawn) [P.31, 6-bromo-8-(difluoromethoxy)-N-[1-[3-(triazol-2-yl)pyrazin-2-yl]ethyl]quinazolin-4-amine]
≥ 80%: percent control (mortality or growth inhibition) at 200 ppm [1] | percent control (mortality, anti-feedant effect or growth inhibition) at 200 ppm [2] | percent control (mortality or growth inhibition) at 200 ppm [3] | percent control (mortality, anti-feedant effect or growth inhibition) at 200 ppm [4]

CC(Nc1ncnc2c(C(F)(F)F)cc(Br)cc12)c1nccnc1-n1nccn1 (stereo not drawn) [P.33, 6-bromo-N-[1-[3-(triazol-2-yl)pyrazin-2-yl]ethyl]-8-(trifluoromethyl)quinazolin-4-amine]
≥ 80%: percent control (mortality or growth inhibition) at 200 ppm [1] | percent control (mortality, anti-feedant effect or growth inhibition) at 200 ppm [2] | percent control (mortality or growth inhibition) at 200 ppm [3] | percent control (mortality, anti-feedant effect or growth inhibition) at 200 ppm [4]

CC(Nc1ncnc2c(Br)cc(C(F)(F)F)cc12)c1nccnc1-n1nccn1 (stereo not drawn) [P.34, 8-bromo-N-[1-[3-(triazol-2-yl)pyrazin-2-yl]ethyl]-6-(trifluoromethyl)quinazolin-4-amine]
≥ 80%: percent control (mortality or growth inhibition) at 200 ppm [1] | percent control (mortality, anti-feedant effect or growth inhibition) at 200 ppm [2] | percent control (mortality or growth inhibition) at 200 ppm [3] | percent control (mortality, anti-feedant effect or growth inhibition) at 200 ppm [4]

CC(Nc1ncnc2c(Cl)cc(C(F)(F)F)cc12)c1nccnc1-n1nccn1 (stereo not drawn) [P.35, 8-chloro-N-[1-[3-(triazol-2-yl)pyrazin-2-yl]ethyl]-6-(trifluoromethyl)quinazolin-4-amine]
≥ 80%: percent control (mortality or growth inhibition) at 200 ppm [1] | percent control (mortality, anti-feedant effect or growth inhibition) at 200 ppm [2] | percent control (mortality or growth inhibition) at 200 ppm [3] | percent control (mortality, anti-feedant effect or growth inhibition) at 200 ppm [4]

CC(Nc1ncnc2c(Br)cc(Br)cc12)c1nccnc1-n1nccn1 (stereo not drawn) [P.37, 6,8-dibromo-N-[1-[3-(triazol-2-yl)pyrazin-2-yl]ethyl]quinazolin-4-amine]
≥ 80%: percent control (mortality or growth inhibition) at 200 ppm [1] | percent control (mortality, anti-feedant effect or growth inhibition) at 200 ppm [2] | percent control (mortality or growth inhibition) at 200 ppm [3] | percent control (mortality, anti-feedant effect or growth inhibition) at 200 ppm [4]

CC(Nc1ncnc2c(Br)cc(Br)cc12)c1nccnc1-c1ncccn1 (stereo not drawn) [P.38, 6,8-dibromo-N-[1-(3-pyrimidin-2-ylpyrazin-2-yl)ethyl]quinazolin-4-amine]
≥ 80%: percent control (mortality or growth inhibition) at 200 ppm [1] | percent control (mortality, anti-feedant effect or growth inhibition) at 200 ppm [2] | percent control (mortality or growth inhibition) at 200 ppm [3] | percent control (mortality, anti-feedant effect or growth inhibition) at 200 ppm [4]

CC(Nc1ncnc2c(C(F)(F)F)cc(Cl)cc12)c1nccnc1-n1nccn1 (stereo not drawn) [P.39, 6-chloro-N-[1-[3-(triazol-2-yl)pyrazin-2-yl]ethyl]-8-(trifluoromethyl)quinazolin-4-amine]
≥ 80%: percent control (mortality or growth inhibition) at 200 ppm [1] | percent control (mortality, anti-feedant effect or growth inhibition) at 200 ppm [2] | percent control (mortality or growth inhibition) at 200 ppm [3] | percent control (mortality, anti-feedant effect or growth inhibition) at 200 ppm [4]

CC(Nc1ncnc2c(C(F)(F)F)cc(C(F)(F)F)cc12)c1nccnc1-n1nccn1 (stereo not drawn) [P.56, N-[1-[3-(triazol-2-yl)pyrazin-2-yl]ethyl]-6,8-bis(trifluoromethyl)quina-zolin-4-amine]
≥ 80%: percent control (mortality or growth inhibition) at 200 ppm [1] | percent control (mortality, anti-feedant effect or growth inhibition) at 200 ppm [2] | percent control (mortality or growth inhibition) at 200 ppm [3] | percent control (mortality, anti-feedant effect or growth inhibition) at 200 ppm [4]

CC(Nc1ncnc2c(Br)cc(C(F)(F)F)cc12)c1nccnc1-c1ncccn1 (stereo not drawn) [P.96, 8-bromo-N-[1-(3-pyrimidin-2-ylpyrazin-2-yl)ethyl]-6-(trifluoromethyl)quinazolin-4-amine]
≥ 80%: percent control (mortality or growth inhibition) at 200 ppm [1] | percent control (mortality, anti-feedant effect or growth inhibition) at 200 ppm [2] | percent control (mortality or growth inhibition) at 200 ppm [3] | percent control (mortality, anti-feedant effect or growth inhibition) at 200 ppm [4]

CC(c1nccnc1-c1ncccn1)N(C)c1ncnc2c(Br)cc(C(F)(F)F)cc12 (stereo not drawn) [P.97, 8-bromo-N-methyl-N-[1-(3-pyrimidin-2-ylpyrazin-2-yl)ethyl]-6-(trifluoromethyl)quinazolin-4-amine]
≥ 80%: percent control (mortality or growth inhibition) at 200 ppm [1] | percent control (mortality, anti-feedant effect or growth inhibition) at 200 ppm [2] | percent control (mortality or growth inhibition) at 200 ppm [3] | percent control (mortality, anti-feedant effect or growth inhibition) at 200 ppm [4]
